Experimental data as given in patent US12157741B2, “Macrocyclic inhibitors of DYRK1A” (DANA-FARBER CANCER INSTITUTE, INC., priority 2018, dated 2024).

Legend:
Type in all cases: binding
Settings in all cases: compound 1 uM
[1] = target: various enzymes (Homo sapiens, UniProt O14730)
Method: (§1) Ambit profiling was conducted in accordance with the manufacturer's instructions.

[2] = target: various enzymes (Homo sapiens, UniProt P15735)
Method: as §1

[3] = target: various enzymes (Homo sapiens, UniProt Q14289)
Method: as §1

[4] = target: various enzymes (Homo sapiens, UniProt P07333)
various enzymes (Homo sapiens, UniProt P07333), sequence (P07333 20-972): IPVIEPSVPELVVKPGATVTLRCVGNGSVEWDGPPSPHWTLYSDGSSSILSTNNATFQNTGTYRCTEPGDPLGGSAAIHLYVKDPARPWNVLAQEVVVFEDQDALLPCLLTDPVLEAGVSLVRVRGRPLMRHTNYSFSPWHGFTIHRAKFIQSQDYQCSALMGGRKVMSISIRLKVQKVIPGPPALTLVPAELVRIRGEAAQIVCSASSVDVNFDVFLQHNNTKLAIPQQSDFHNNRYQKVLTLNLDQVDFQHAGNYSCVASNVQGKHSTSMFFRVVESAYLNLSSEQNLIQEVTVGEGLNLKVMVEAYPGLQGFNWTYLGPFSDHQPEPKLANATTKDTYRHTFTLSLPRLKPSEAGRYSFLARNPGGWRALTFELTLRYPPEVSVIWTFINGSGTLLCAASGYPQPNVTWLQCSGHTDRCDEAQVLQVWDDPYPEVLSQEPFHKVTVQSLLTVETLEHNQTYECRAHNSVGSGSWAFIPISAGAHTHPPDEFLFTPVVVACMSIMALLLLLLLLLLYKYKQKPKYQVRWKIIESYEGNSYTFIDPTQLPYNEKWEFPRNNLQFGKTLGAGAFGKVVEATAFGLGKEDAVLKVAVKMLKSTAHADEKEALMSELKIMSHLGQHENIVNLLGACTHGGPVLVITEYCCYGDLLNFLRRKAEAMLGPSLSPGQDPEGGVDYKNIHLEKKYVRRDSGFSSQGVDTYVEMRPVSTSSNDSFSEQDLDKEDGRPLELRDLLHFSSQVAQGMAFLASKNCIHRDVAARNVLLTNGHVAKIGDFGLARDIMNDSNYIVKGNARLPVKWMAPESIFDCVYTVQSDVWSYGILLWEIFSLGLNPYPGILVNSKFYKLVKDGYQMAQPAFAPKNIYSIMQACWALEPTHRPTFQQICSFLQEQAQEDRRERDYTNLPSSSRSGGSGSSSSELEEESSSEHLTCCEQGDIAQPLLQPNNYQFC
Method: as §1

[5] = target: various enzymes (Homo sapiens, UniProt P00533)
Method: as §1

[6] = target: various enzymes (Homo sapiens, UniProt Q14004)
Method: as §1

[7] = target: various enzymes (Homo sapiens, UniProt Q59H18)
Method: as §1

[8] = target: various enzymes (Homo sapiens, UniProt Q99683)
Method: as §1

[9] = target: various enzymes (Homo sapiens, UniProt Q8TDR2)
Method: as §1

[10] = target: various enzymes (Homo sapiens, UniProt Q9Y6R4)
various enzymes (Homo sapiens, UniProt Q9Y6R4), sequence (Q9Y6R4 whole entry): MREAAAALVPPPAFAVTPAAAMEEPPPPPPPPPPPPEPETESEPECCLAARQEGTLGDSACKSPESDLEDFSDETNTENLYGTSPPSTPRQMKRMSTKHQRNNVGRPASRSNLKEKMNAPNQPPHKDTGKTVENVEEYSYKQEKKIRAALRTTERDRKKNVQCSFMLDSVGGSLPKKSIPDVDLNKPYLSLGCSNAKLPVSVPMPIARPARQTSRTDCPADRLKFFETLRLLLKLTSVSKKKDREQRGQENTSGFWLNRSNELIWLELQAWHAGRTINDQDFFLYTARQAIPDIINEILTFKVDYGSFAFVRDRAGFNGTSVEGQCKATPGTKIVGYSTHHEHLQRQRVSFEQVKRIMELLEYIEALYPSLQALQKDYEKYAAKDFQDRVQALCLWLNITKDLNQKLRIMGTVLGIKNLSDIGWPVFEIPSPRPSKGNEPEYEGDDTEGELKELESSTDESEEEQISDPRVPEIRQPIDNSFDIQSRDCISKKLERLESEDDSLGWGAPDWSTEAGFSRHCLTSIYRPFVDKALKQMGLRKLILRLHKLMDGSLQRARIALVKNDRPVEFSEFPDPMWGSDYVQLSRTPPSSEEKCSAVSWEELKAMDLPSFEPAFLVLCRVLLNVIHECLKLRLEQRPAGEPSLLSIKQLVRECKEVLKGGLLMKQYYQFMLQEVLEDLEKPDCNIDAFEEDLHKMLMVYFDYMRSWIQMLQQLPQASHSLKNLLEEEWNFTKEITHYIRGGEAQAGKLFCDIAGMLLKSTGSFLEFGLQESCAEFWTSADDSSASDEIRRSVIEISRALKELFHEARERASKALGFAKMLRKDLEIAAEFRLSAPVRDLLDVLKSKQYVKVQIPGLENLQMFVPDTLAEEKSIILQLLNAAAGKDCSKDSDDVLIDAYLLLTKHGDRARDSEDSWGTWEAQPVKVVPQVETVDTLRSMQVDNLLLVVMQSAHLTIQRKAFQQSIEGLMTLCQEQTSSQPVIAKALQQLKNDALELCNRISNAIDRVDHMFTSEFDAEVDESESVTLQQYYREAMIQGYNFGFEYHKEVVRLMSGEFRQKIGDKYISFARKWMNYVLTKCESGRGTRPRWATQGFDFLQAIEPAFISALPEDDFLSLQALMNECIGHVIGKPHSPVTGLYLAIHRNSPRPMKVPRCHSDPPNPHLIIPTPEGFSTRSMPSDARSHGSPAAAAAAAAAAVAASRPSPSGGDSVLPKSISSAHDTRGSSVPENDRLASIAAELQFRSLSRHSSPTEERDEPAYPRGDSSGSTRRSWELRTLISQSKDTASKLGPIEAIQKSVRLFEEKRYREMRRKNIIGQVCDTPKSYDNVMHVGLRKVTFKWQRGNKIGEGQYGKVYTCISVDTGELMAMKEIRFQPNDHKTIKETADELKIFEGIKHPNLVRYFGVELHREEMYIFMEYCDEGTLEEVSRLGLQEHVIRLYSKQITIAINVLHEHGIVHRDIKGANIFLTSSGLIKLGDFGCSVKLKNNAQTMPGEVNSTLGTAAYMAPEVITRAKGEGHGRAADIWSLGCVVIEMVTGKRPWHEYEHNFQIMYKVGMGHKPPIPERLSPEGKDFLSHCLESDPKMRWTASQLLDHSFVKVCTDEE
Method: as §1

[11] = target: various enzymes (Homo sapiens, UniProt P0C1S8)
Method: as §1

[12] = target: various enzymes (Homo sapiens, UniProt P00519, Q252H)
Method: as §1

[13] = target: various enzymes (Homo sapiens, UniProt P42336)
Method: as §1

[14] = target: various enzymes (Homo sapiens, UniProt Q86UX6)
Method: as §1

[15] = target: various enzymes (Homo sapiens, UniProt Q9Y5S2)
various enzymes (Homo sapiens, UniProt Q9Y5S2), sequence (Q9Y5S2 whole entry): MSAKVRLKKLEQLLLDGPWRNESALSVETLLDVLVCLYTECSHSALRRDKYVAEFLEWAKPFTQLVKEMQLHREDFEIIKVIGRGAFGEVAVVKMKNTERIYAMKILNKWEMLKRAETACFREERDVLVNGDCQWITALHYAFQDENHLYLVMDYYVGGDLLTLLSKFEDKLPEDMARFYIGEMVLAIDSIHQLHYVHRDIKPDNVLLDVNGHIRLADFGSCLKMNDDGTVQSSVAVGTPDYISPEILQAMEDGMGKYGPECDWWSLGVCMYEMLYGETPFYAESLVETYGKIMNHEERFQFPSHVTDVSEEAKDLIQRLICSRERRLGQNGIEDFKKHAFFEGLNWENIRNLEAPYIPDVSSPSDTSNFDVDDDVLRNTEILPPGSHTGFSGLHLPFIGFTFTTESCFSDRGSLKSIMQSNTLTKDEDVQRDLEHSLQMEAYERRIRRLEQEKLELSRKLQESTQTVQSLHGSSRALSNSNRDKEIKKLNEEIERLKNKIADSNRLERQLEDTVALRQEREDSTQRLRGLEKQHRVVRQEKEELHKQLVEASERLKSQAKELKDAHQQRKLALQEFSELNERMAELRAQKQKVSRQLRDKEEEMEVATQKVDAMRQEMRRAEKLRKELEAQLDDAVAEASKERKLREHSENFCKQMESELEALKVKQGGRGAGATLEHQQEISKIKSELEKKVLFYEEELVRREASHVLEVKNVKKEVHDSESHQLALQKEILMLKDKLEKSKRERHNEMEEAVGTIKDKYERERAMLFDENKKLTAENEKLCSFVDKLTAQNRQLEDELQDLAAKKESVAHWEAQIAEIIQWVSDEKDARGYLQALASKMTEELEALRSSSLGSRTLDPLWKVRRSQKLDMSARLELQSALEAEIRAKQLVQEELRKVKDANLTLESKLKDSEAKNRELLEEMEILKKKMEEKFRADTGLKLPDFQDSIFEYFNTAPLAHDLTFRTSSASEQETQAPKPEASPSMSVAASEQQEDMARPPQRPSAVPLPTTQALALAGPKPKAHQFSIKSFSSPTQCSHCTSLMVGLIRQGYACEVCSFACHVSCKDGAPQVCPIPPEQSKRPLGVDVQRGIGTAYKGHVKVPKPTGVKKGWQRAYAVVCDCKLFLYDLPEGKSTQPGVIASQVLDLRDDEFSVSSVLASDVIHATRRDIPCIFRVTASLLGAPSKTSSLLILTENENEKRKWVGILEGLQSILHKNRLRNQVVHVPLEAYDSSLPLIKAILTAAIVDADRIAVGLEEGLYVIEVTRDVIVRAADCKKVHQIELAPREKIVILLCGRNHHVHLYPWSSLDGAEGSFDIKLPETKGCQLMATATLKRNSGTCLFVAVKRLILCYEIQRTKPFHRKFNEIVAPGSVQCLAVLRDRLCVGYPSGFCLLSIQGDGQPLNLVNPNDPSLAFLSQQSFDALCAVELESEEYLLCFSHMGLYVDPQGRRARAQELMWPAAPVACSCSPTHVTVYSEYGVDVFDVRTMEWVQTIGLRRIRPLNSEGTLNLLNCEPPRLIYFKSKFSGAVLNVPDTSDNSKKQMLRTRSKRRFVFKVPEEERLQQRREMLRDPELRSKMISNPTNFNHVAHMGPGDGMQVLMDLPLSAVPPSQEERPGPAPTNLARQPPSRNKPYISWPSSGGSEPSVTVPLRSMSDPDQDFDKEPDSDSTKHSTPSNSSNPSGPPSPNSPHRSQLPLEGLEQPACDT
Method: as §1

[16] = target: various enzymes (Homo sapiens, UniProt Q9H4B4)
Method: as §1

[17] = target: various enzymes (Homo sapiens, UniProt Q9UL54)
Method: as §1

[18] = target: various enzymes (Homo sapiens, UniProt P43403)
Method: as §1

[19] = target: various enzymes (Homo sapiens, UniProt P00533, DEL746-750)
Method: as §1

[20] = target: various enzymes (Homo sapiens, UniProt P52564)
various enzymes (Homo sapiens, UniProt P52564), sequence (P52564 whole entry): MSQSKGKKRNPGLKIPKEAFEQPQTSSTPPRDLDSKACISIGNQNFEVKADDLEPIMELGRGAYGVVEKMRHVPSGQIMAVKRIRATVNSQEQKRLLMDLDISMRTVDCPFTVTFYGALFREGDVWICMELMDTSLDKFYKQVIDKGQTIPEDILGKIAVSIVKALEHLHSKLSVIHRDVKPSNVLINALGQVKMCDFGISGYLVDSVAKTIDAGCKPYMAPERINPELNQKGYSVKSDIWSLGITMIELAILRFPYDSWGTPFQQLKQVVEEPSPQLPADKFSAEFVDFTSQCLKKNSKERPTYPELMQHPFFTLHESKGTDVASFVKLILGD
Method: as §1

[21] = target: various enzymes (Homo sapiens, UniProt Q16513)
Method: as §1

[22] = target: various enzymes (Homo sapiens, UniProt O94804)
Method: as §1

[23] = target: various enzymes (Homo sapiens, UniProt Q13237)
Method: as §1

[24] = target: various enzymes (Homo sapiens, UniProt Q32MK0)
Method: as §1

[25] = target: various enzymes (Homo sapiens, UniProt P35916)
Method: as §1

[26] = target: various enzymes (Homo sapiens, UniProt P06241)
Method: as §1

[27] = target: various enzymes (Homo sapiens, UniProt P28482)
various enzymes (Homo sapiens, UniProt P28482), sequence (P28482 whole entry): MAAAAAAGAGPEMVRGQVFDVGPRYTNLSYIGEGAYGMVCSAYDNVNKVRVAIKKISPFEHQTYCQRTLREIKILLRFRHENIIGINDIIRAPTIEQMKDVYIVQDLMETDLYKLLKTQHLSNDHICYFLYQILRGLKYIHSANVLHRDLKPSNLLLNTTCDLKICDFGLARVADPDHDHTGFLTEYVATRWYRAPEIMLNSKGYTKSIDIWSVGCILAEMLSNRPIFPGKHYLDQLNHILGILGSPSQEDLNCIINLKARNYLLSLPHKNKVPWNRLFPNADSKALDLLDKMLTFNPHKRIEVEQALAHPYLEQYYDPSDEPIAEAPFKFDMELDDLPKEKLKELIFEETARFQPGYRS
Method: as §1

[28] = target: various enzymes (Homo sapiens, UniProt Q9BYT3)
Method: as §1

[29] = target: T1, various enzymes (Homo sapiens, UniProt O14733)
T1 sequence (O14733 1-419): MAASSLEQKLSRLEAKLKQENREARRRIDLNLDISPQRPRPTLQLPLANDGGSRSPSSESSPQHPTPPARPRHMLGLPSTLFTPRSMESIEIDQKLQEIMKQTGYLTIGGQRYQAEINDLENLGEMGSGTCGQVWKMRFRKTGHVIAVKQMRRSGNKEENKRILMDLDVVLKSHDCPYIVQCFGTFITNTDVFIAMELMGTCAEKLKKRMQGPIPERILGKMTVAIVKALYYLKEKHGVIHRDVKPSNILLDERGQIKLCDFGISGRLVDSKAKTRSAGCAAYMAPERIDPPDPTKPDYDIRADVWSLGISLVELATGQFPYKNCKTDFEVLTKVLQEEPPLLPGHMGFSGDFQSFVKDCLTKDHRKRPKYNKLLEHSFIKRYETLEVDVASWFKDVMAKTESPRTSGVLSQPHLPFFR
Method: as §1

[30] = target: various enzymes (Homo sapiens, UniProt Q02779)
Method: as §1

[31] = target: T2, various enzymes (Homo sapiens, UniProt Q13043)
T2 sequence (Q13043 1-487): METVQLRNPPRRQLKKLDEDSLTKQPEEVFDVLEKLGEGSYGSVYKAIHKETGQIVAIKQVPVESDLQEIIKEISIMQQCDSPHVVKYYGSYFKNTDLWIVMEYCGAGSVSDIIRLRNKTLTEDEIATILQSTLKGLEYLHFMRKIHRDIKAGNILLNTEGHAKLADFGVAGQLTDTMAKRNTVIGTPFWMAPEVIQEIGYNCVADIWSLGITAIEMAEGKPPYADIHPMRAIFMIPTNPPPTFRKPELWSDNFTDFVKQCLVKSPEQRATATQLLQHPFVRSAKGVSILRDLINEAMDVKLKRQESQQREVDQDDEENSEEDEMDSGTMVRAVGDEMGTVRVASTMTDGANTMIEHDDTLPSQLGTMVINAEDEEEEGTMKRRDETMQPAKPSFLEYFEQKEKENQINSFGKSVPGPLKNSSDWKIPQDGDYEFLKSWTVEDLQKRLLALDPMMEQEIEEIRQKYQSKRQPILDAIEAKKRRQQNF
Method: as §1

[32] = target: various enzymes (Homo sapiens, UniProt P35626)
Method: as §1

SMILES | Ambit profiling: RIOK3 [1] | Ambit profiling: PHKG2 [2] | Ambit profiling: PYK2 [3] | Ambit profiling: CSF1R [4] | Ambit profiling: CSF1R-autoinhibited [4] | Ambit profiling: EGFR [5] | Ambit profiling: CDC2L5 [6] | Ambit profiling: TNNI3K [7] | Ambit profiling: ASK1 [8] | Ambit profiling: STK35 [9] | Ambit profiling: MAP3K4 [10] | Ambit profiling: WEE2 [11] | Ambit profiling: ABL1(Q252H)-nonphosphorylated [12] | Ambit profiling: ABL1(Q252H)-phosphorylated [12] | Ambit profiling: PIK3CA [13] | Ambit profiling: YANK3 [14] | Ambit profiling: MRCKB [15] | Ambit profiling: PLK3 [16] | Ambit profiling: TAOK2 [17] | Ambit profiling: ZAP70 [18] | also measured
CC(C)N1Cc2nn(C)cc2-c2cnc3[nH]cc(c3c2)-c2cn(nc2C(F)(F)F)CCCC1=O [Compound 45, (Z)-5-isopropyl-31-methyl-13-(trifluoromethyl)-11H,21H,31H-5-aza-2(3,5)-pyrrolo[2,3-b]pyridina-1(4,1),3(4,3)-dipyrazolacyclononaphan-6-one] | 6 | 44 | 30 | 8.4 | 39 | 29 | 99 | 72 | 100 | 100 | 94 | 100 | 3.2 | 20 | 100 | 100 | 86 | 95 | 28 | 83 | Ambit profiling: EGFR(E746-A750del) [19]: 6.4; Ambit profiling: MEK6 [20]: 15; Ambit profiling: PKN2 [21]: 100; Ambit profiling: LOK [22]: 4.7; Ambit profiling: PRKG2 [23]: 100; Ambit profiling: MLCK [24]: 99; Ambit profiling: FLT4 [25]: 0.1; Ambit profiling: FYN [26]: 39; Ambit profiling: ERK2 [27]: 100; Ambit profiling: STK33 [28]: 71; Ambit profiling: MKK7 [29]: 76; Ambit profiling: MLK2 [30]: 36; Ambit profiling: MST1 [31]: 2.8; Ambit profiling: GRK3 [32]: 100
COc1c2c(nn1C)CN(C(C)C)C(=O)CCCn1cc(c(C(F)(F)F)n1)-c1c[nH]c3ncc-2cc13 [Compound 50, (Z)-5-isopropyl-35-methoxy-31-methyl-13-(trifluoromethyl)-11H,21H,31H-5-aza-2(3,5)-pyrrolo[2,3-b]pyridina-1(4,1),3(4,3)-dipyrazolacyclononaphan-6-one] | 11 | 53 | 19 | 3.3 | 27 | 27 | 89 | 72 | 100 | 94 | 60 | 73 | 2.4 | 1.6 | 83 | 74 | 99 | 77 | 69 | 100 | Ambit profiling: EGFR(E746-A750del) [19]: 5.9; Ambit profiling: MEK6 [20]: 45; Ambit profiling: PKN2 [21]: 100; Ambit profiling: LOK [22]: 0.4; Ambit profiling: PRKG2 [23]: 87; Ambit profiling: MLCK [24]: 82; Ambit profiling: FLT4 [25]: 0.1; Ambit profiling: FYN [26]: 28; Ambit profiling: ERK2 [27]: 87; Ambit profiling: STK33 [28]: 23; Ambit profiling: MKK7 [29]: 80; Ambit profiling: MLK2 [30]: 60; Ambit profiling: MST1 [31]: 2.2; Ambit profiling: GRK3 [32]: 85
